Tests used:
[1] = test system: hepatocytes derived from human ES cells (KhES-1 cell line); experiment: Drug toxicity test: liver deviation enzymes in culture supernatant, human ES cell-derived hepatocytes; assay type: cell-based; details: D-GalN 25 mM, 24 hours; hepatocytes 28th day from differentiation induction; FIG. 15(A)
Procedure: (§1) D-Galactosamine (D-GalN), which is known to have toxicity to hepatocytes, was added to pluripotent stem cell-derived hepatocytes at a final concentration of 25 mM, followed by culture at 37° C. After 24 hours, 1.5 mL of culture supernatant was collected and was centrifuged at 15000 rpm at 4° C. to completely remove cell components. The concentrations of liver-derived deviation enzymes contained in the supernatant, i.e., glutamic oxaloacetic transaminase (GOT), glutamic pyruvic transaminase (GPT), γ-glutamyl transpeptidase (y-GTP), leucine aminopeptidase (LAP), lactate dehydrogenase (LDH), and LDH isozyme (LDH 1 to 5), were measured (performed at BML Inc., Shibuya, Tokyo, Japan).

[2] = test system: undifferentiated ES cells; experiment: Drug toxicity test: deviation enzymes in culture supernatant, undifferentiated human ES cells; assay type: cell-based; details: D-GalN 25 mM, 24 hours; FIG. 15(B)
[3] = test system: hepatocytes derived human iPS cells (#40); experiment: Drug toxicity test: deviation enzymes in culture supernatant, human iPS cell-derived hepatocytes; assay type: cell-based; details: D-GalN 25 mM, 24 hours; FIG. 15(C)
Procedure: as §1

[4] = test system: undifferentiated ES cells; experiment: Drug toxicity test: deviation enzymes in culture supernatant, undifferentiated cells of FIG. 15(D); assay type: cell-based, human; details: D-GalN 25 mM, 24 hours
[5] = test system: SeV-iPS-derived hepatocytes; experiment: Drug toxicity test: deviation enzymes in culture supernatant, SeV-iPS-derived hepatocytes; assay type: cell-based, human; details: cultured in the presence of D-GalN; FIG. 15(E)
Procedure: as §1

[6] = test system: undifferentiated SeV-iPS cells; experiment: Drug toxicity test: deviation enzymes in culture supernatant, undifferentiated SeV-iPS cells; assay type: cell-based, human; details: cultured in the presence of D-GalN; FIG. 15(F)
HepaRG cells = experiment: Drug toxicity test: deviation enzymes in culture supernatant, HepaRG cells; assay type: cell-based, human; details: cultured in the presence of D-GalN; FIG. 15(G)
Procedure: (§2) The HepaRG cells were cultured in accordance with the protocol of BIOPREDIC international. The HepG2 cells were purchased from Health Science Research Resources Bank, and the human primary cultured adult hepatocyte cell line was purchased from DS Pharma Biomedical Co., Ltd. (Osaka, Japan). They were cultured using a CS-C medium kit of Cell Systems Corporation (Kirkland, WA, USA). In the figure, 253G1 refers to a human iPS cell line established at Kyoto University, #40 refers to a human iPS cell line established at National Center for Child Health and Development, SeV refers to an iPS cell line induced using a SeV vector, ES-K1 refers to a human ES cell line established at Kyoto University, and CTL is an abbreviation of control.
as §1

HepG2 cells = experiment: Drug toxicity test: deviation enzymes in culture supernatant, HepG2 cells; assay type: cell-based, human; details: cultured in the presence of D-GalN; FIG. 15(H)
Procedure: as §2, §1

[7] = test system: hepatocytes derived from a #40 cell line; experiment: PGE1 pretreatment before D-GalN administration: deviation enzymes in culture supernatant; assay type: cell-based, human; details: 4 mM PGE1 pretreatment, 37° C. for 4 hours, then D-GalN administration; FIG. 16
Procedure: as §1
That is, 4 mM PGE1 was added to hepatocytes derived from a #40 cell line in advance, and the hepatocytes were cultured at 37° C. for 4 hours and were subjected to a D-GalN administration experiment as in above. […] Similar tendencies were detected in the samples of hepatocyte differentiation induction from other human iPS cell lines and human ES cell lines.

## N[C@H]1C(O)O[C@H](CO)[C@H](O)[C@@H]1O (stereo partly drawn) [D-GalN, D-Galactosamine]
[1]
  LDH isozyme pattern: “liver damage-type” pattern in which type 4 and type 5 are dominant
  level of GOT in culture supernatant: increased
  level of LAP in culture supernatant: increased
  level of LDH in culture supernatant: increased
  level of γ-GTP in culture supernatant: increased
[2]
  levels of all of the deviation enzymes in culture supernatant: did not increase
[3]
  LDH isozyme pattern: “liver damage-type” pattern in which type 4 and type 5 are dominant
  level of GOT in culture supernatant: increased
  level of GPT in culture supernatant: increased
  level of LAP in culture supernatant: increased
  level of LDH in culture supernatant: increased
  level of γ-GTP in culture supernatant: increased
[4]
  level of GOT in culture supernatant: did not increase
  level of GPT in culture supernatant: did not increase
  level of LAP in culture supernatant: did not increase
  level of LDH in culture supernatant: did not increase
  level of γ-GTP in culture supernatant: did not increase
[5]
  level of GOT in the culture supernatant: increased
[6]
  level of GOT in the culture supernatant: did not increase
HepaRG cells
  level of GOT in the culture supernatant: increased
  level of GPT in the culture supernatant: increased
  level of LAP in the culture supernatant: increased
  level of LDH-5 in the culture supernatant: increased
  level of γ-GTP in the culture supernatant: did not increase
HepG2 cells
  level of GOT in the culture supernatant: increased
  level of GPT in the culture supernatant: increased
  level of LAP in the culture supernatant: did not increase
  level of LDH-5 in the culture supernatant: increased
  level of γ-GTP in the culture supernatant: did not increase

## CCCCC[C@H](O)/C=C/[C@H]1[C@H](O)CC(=O)[C@@H]1CCCCCCC(=O)O [PGE1, prostaglandin E1]
[7]
  levels of all the deviation enzymes from the liver detected in the culture supernatant after D-GalN: significantly suppressed
